# From PMC10583824, “The rational design of ARUK2007145, a dual inhibitor of the α and γ isoforms of the lipid kinase phosphatidylinositol 5-phosphate 4-kinase (PI5P4K)” (RSC Medicinal Chemistry, 2023)
# Legend:
# PI5P4Kγ+ = biological target: T1, PI5P4Kγ+ (Homo sapiens, UniProt Q8TBX8, D138G/D197E/E133P/E135D/E153T/E196G/G139A/N195G/S132L/S134N); experiment: biochemical; settings: ADP-Glo pIC50 PI5P4Kγ+, Table S1, two decimals; asterisk not explained
# T1 sequence (Q8TBX8 with tags, fused parts or gaps INS131LPN/S132D/E133S/S134Q/E135A/G136R/D138G/G139A/E153T/N195G/E196G/D197E): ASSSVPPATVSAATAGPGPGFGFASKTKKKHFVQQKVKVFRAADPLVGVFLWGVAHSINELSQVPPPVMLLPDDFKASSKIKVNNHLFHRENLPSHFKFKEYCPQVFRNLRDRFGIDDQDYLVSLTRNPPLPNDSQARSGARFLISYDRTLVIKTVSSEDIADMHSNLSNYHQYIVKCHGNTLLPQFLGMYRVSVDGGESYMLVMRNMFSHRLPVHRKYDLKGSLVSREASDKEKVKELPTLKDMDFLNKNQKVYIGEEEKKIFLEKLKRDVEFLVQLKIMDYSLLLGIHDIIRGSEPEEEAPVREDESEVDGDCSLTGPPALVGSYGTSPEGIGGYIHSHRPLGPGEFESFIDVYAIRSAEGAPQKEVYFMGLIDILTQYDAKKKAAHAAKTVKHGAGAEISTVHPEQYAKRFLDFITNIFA
# PI5P4Kα = biological target: T2, PI5P4Kα (Homo sapiens, UniProt P48426); experiment: biochemical; settings: ADP-Glo pIC50 PI5P4Kα, Table S1, two decimals; asterisk not explained
# T2 sequence (P48426 1-406): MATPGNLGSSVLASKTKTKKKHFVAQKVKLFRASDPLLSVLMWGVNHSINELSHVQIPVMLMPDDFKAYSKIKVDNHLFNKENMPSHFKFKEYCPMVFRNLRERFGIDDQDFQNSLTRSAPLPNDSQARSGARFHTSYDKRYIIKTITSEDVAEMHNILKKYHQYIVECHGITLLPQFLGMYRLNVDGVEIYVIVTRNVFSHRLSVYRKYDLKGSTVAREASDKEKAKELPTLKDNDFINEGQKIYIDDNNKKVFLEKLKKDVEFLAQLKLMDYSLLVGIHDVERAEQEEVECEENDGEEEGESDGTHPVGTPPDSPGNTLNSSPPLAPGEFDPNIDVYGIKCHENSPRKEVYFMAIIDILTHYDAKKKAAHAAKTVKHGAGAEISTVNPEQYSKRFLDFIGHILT
SMILES,IC50 (PI5P4Kγ+) [nM],IC50 (PI5P4Kα) [nM]
CC(=O)NCc1cc2c(Nc3ccc(S(=O)(=O)C4CCCC4)cc3)ncnc2s1,12.6,4370
CN(C)C(=O)c1cc2c(Nc3ccc(S(C)(=O)=O)cc3)ncnc2s1,562,6920
COc1cnccc1-c1cc2c(Nc3ccc(C4CC4)cc3)ncnc2[nH]1,85.1,240
COc1cnccc1-c1cc2c(Nc3ccc(C)c(C)c3)ncnc2s1,631,275
COc1cnccc1-c1cc2c(Nc3ccc(C4CC4)cc3)ncnc2s1,63.1,269
COc1ncccc1-c1cc2c(Nc3ccc(S(C)(=O)=O)cc3)ncnc2s1,28.8,2290
CS(=O)(=O)c1ccc(Nc2ncnc3sc(-c4ccc(F)cc4F)cc23)cc1,85.1,1100
CS(=O)(=O)c1ccc(Nc2ncnc3sc(-c4ccc(F)cc4)cc23)cc1,52.5,9770
CS(=O)(=O)c1ccc(Nc2ncnc3sc(-c4cnoc4)cc23)cc1,36.3,2190
CS(=O)(=O)c1ccc(Nc2ncnc3sc(C(F)F)cc23)cc1,166,8710
Cc1cc2c(Nc3ccc(N4CC(C)(C)CC4=O)cc3)ncnc2s1,132,1170
Cc1cc2c(Nc3ccc(S(=O)(=O)C4CC4)cc3)ncnc2s1,75.9,7760
Cc1ccc(Nc2ncnc3sc(-c4cccnc4Cl)cc23)c(C)c1,8320,2950
Clc1ncccc1-c1cc2c(Nc3ccc(C4CC4)cc3)ncnc2s1,67.6,195
O=C(NCc1cc2c(Nc3ccc(S(=O)(=O)C4CCCC4)cc3)ncnc2s1)c1ccc(C2(C(F)(F)F)N=N2)cc1,39.8,5250
N#Cc1cc2c(Nc3ccc(S(=O)(=O)C4CCCC4)cc3)ncnc2s1,49,4680
Cc1c(C(=O)O)sc2ncnc(Nc3ccc(C(C)C)cc3)c12 [CC(C)c1ccc(cc1)Nc1ncnc2sc(c(c12)C)C(=O)O],,2750
CCc1cc2c(Nc3ccc(N4CCCC4=O)c(C)c3)ncnc2s1 [CCc1cc2c(ncnc2s1)Nc1ccc(c(c1)C)N1CCCC1=O],288,9770
CCc1ccc(Nc2ncnc3sc(-c4cccnc4Cl)cc23)cc1 [CCc1ccc(cc1)Nc1ncnc2sc(cc12)-c1cccnc1Cl],151,324
CC(=O)N(C)c1ccc(Nc2ncnc3sc(C)cc23)cc1 [CN(C(=O)C)c1ccc(cc1)Nc1ncnc2sc(cc12)C],,1120
COc1cc(Nc2ncnc3sc(C)cc23)ccc1N1CCCC1=O [COc1cc(ccc1N1CCCC1=O)Nc1ncnc2sc(cc12)C],214,7240
COc1cnccc1-c1cc2c(Nc3ccc(Cl)cc3)ncnc2s1 [COc1cnccc1-c1cc2c(ncnc2s1)Nc1ccc(cc1)Cl],63.1,1320
COc1cnccc1-c1cc2c(Nc3ccc(SC)cc3)ncnc2s1 [COc1cnccc1-c1cc2c(ncnc2s1)Nc1ccc(cc1)SC],15.1,129
COc1cnccc1-c1cc2c(Nc3ccc(C)cc3C)ncnc2s1 [COc1cnccc1-c1cc2c(ncnc2s1)Nc1ccc(cc1C)C],7410,5010
COc1cnccc1-c1cc2ncnc(Nc3ccc(SC)cc3)c2s1 [COc1cnccc1-c1cc2ncnc(c2s1)Nc1ccc(cc1)SC],53.7,490
